{"source": "patent US12501899B2", "about": "“Mite infestation treatment” (priority 2019, dated 2025)", "key": {"[1]": {"tested_on": "Varroa destructor", "conditions": "1 μg/μL, 1 μL on bee thorax; time not stated (monitored up to 24 hours)", "protocol": "About 300 bees (Apis mellifera) infected with Varroa destructor were taken from a hive superinfected with Varroa destructor. The bees were then placed in a device allowing to detach Varroa mites attached to the bees (device described in Community model n° 003419415-0001) filled with icing sugar. The device was stirred for 2 minutes to sample the Varroa mites attached to the bees. The icing sugar allows to interfere between the bee and the Varroa mite that was attached thereto. Varroa mites were harvested with icing sugar because they pass through the holes in the device, unlike bees. The Varroa mites were then separated from the icing sugar.\nThe Varroa mites thus recovered were dispatched in boxes (10 Varroa mites per box).\nThe bees were then dispatched in the boxes (10 per box).\nThe bees were then put to sleep for a few minutes using CO2 (flow of 3 liters for 20 seconds) in order to deposit 1 μL of compound to be tested on their thorax using a pipette. It should be noted that the bees which received romifidine hydrochloride at a concentration of 10 μg/μL received 2 μL of product. The bees were unconscious for the time the compound to be tested was deposited, that is to say around three minutes, then they woke up.\nAfter thoracic deposition of the compound to be tested, the 10 bees from the same box were transferred to a box containing the 10 Varroa mites (cf. “Preparation of Varroa mites” above). Liquid sugar was left in each of the boxes to feed the bees during the observations. The series of boxes was then placed in an oven at […] with a humidity of 50% in order to approximate hive conditions as closely as possible.\nThe mortality of Varroa mites and bees was then monitored 5 minutes, 2 hours, 4 hours and 24 hours after application of the compound to be tested to the bees. Dead Varroa mites correspond to Varroa mites detached from the bees. Dead bees correspond to bees which no longer move and which are often placed on their thorax.\nThe following compositions were applied to the thorax of the bees: • Solvent, • Amitraz at 1 μg/μL in acetone, • Clonidine hydrochloride at 100 μg/μL, 10 μg/μL, 1 μg/μL and 0.1 μg/μL in methanol, • Detomidine hydrochloride monohydrate at 1 μg/μL in methanol, • Dexmedetomidine hydrochloride at 100 μg/μL, 10 μg/μL, 1 μg/μL and 0.1 μg/μL in methanol, • Romifidine hydrochloride at 10 μg/μL and at 5 μg/μL in methanol, • Tizanidine hydrochloride at 1 μg/μL in methanol, • Medetomidine hydrochloride at 0.1 μg/μL in ethanol, • Levomedetomidine hydrochloride at 100 μg/μL, 10 μg/μL, 1 μg/μL and 0.1 μg/μL in methanol, • Octopamine at 1 μg/μL in ethanol. Results"}, "[2]": {"tested_on": "Ixodes ricinus", "test": "Oral acaricidal test on ticks in membrane feeding wells with treated blood", "assay_type": "in vivo", "conditions": "for average percentage of affected adult ticks (convulsion, morbidity or death of ticks): 100 ppm oral; for mortality at 100 ppm: Ixodes ricinus, po", "protocol": "A laboratory study was conducted to determine the oral acaricidal properties of three compounds according to the invention (SN0305, SN0306 and SN0307) against Ixodes ricinus. Each compound was tested at 1, 10 and 100 ppm, and compared to a negative control corresponding to solvent alone (0.1% DMSO). Amitraz at 100 ppm was used as a positive control.\nThe Ixodes ricinus ticks (nymphs and adults) were placed for 24 hours on a membrane in feeding wells containing blood mixed with the tested compounds. Tick mortality (number of dead, moribund, or unaffected ticks in each well), attachment to the membrane (number of ticks attached/detached in each well), and the behavior (presence or absence of twitches) were examined 1, 3, 6, 12, 24, 48, 72, and 96 hours after the onset of tick exposure to the compounds.\nTicks (Ixodes ricinus) were collected. Collected adult females were kept separate from the nymphs and both were placed in sterile tubes in a humidity chamber to provide ˜80% humidity and 17° C. Only healthy ticks (females/nymphs) were chosen for the experiment.\nBatches of 12 adults or nymphs were inserted into the feeding wells. After about 24 hours, their attachment was examined with a brush.\nThe efficiency of three compounds (SN0305, SN0306 and SN0307), each tested at three concentrations (1, 10, 100 ppm), was compared to the solvent control (0.1% DMSO, Sigma-Aldrich D-5879; Lot 101K0028) and to the positive control (Amitraze at 100 ppm).\nSilicone-coated membranes with a thickness comprised between 110 and 140 μm were used for the construction of the feeding units.\nFeeding units (sterilized acrylic glass tubes) were placed in feeding wells made of sterilized six-well plates.\n3.1 ml of sterile 10^−3 M ATP-enriched blood was applied to each feeding well. Feeding wells were then inserted into a heated water bath (FIG. 12) and maintained at 37° C.±2° C.\nStock solutions of 100,000 ppm were prepared and tenth dilutions were carried out in 0.1% DMSO to reach the desired concentrations. After tick attachment (24 hours after placing the ticks in the feeding wells), 3.1 μl of the solutions were added to each feeding well containing 3.1 ml of blood. Blood was changed after 12 hours with fresh supplementation of the compounds to be tested. The ticks were exposed to the product for a total of 24 hours, after which the blood was again changed to fresh, untreated blood.\nTick mortality (number of dead, moribund or unaffected ticks in each well), attachment (number of attached/detached ticks in each well) and behavior (presence, absence and intensity of convulsions) were examined 1, 3, 6, 12, 24, 48, 72, and 96 hours after the start of tick exposure to the compound."}}, "note": "Where two headings read alike, the source gives them in different places."}
{"smiles": "Cc1ccc(/N=C/N(C)/C=N/c2ccc(C)cc2C)c(C)c1", "note": "[Amitraz]", "values": [{"measurement": "Varroa mites killed / mortality for Varroa mites", "setting": "[1]", "result": 100, "unit": "%"}, {"measurement": "average percentage of affected adult ticks (convulsion, morbidity or death of ticks)", "setting": "[2]; adult ticks, 1 h", "result": 66.8, "unit": "%"}, {"measurement": "average percentage of affected adult ticks (convulsion, morbidity or death of ticks)", "setting": "[2]; adult ticks, 3 h", "result": 56.2, "unit": "%"}, {"measurement": "average percentage of affected adult ticks (convulsion, morbidity or death of ticks)", "setting": "[2]; adult ticks, 6 h", "result": 53.7, "unit": "%"}, {"measurement": "average percentage of affected adult ticks (convulsion, morbidity or death of ticks)", "setting": "[2]; adult ticks, 12 h", "result": 56.2, "unit": "%"}, {"measurement": "average percentage of affected adult ticks (convulsion, morbidity or death of ticks)", "setting": "[2]; adult ticks, 24 h", "result": 66.5, "unit": "%"}, {"measurement": "average percentage of affected adult ticks (convulsion, morbidity or death of ticks)", "setting": "[2]; adult ticks, 48 h", "result": 83.1, "unit": "%"}, {"measurement": "average percentage of affected adult ticks (convulsion, morbidity or death of ticks)", "setting": "[2]; adult ticks, 72 h", "result": 100.0, "unit": "%"}, {"measurement": "average percentage of affected adult ticks (convulsion, morbidity or death of ticks)", "setting": "[2]; adult ticks, 96 h", "result": 100.0, "unit": "%"}, {"measurement": "detachment of adult ticks (in words)", "setting": "[2]; 100 ppm, adult ticks", "result": "strong detachment"}, {"measurement": "average percentage of attached adult ticks", "setting": "[2]; 100 ppm, adult ticks, 1 h", "result": 66.8, "unit": "%"}, {"measurement": "average percentage of attached adult ticks", "setting": "[2]; 100 ppm, adult ticks, 3 h", "result": 56.2, "unit": "%"}, {"measurement": "average percentage of attached adult ticks", "setting": "[2]; 100 ppm, adult ticks, 6 h", "result": 53.7, "unit": "%"}, {"measurement": "average percentage of attached adult ticks", "setting": "[2]; 100 ppm, adult ticks, 12 h", "result": 53.7, "unit": "%"}, {"measurement": "average percentage of attached adult ticks", "setting": "[2]; 100 ppm, adult ticks, 24 h", "result": 53.7, "unit": "%"}, {"measurement": "average percentage of attached adult ticks", "setting": "[2]; 100 ppm, adult ticks, 48 h", "result": 53.7, "unit": "%"}, {"measurement": "average percentage of attached adult ticks", "setting": "[2]; 100 ppm, adult ticks, 72 h", "result": 53.7, "unit": "%"}, {"measurement": "average percentage of attached adult ticks", "setting": "[2]; 100 ppm, adult ticks, 96 h", "result": 53.7, "unit": "%"}, {"measurement": "effect on nymphs (convulsion, morbidity or death), in words", "setting": "[2]; 100 ppm, nymphs, compared with SN0305, SN0306, SN0307", "result": "comparable result"}, {"measurement": "mortality at 100 ppm", "setting": "[2]; adult ticks, 100 ppm, 1 h, read-out: average percentage of adult tick mortality (moribund or dead adult ticks)", "result": 0, "unit": "%"}, {"measurement": "mortality at 100 ppm", "setting": "[2]; adult ticks, 100 ppm, 3 h, read-out: average percentage of adult tick mortality (moribund or dead adult ticks)", "result": 2.8, "unit": "%"}, {"measurement": "mortality at 100 ppm", "setting": "[2]; adult ticks, 100 ppm, 6 h, read-out: average percentage of adult tick mortality (moribund or dead adult ticks)", "result": 10.1, "unit": "%"}, {"measurement": "mortality at 100 ppm", "setting": "[2]; adult ticks, 100 ppm, 12 h, read-out: average percentage of adult tick mortality (moribund or dead adult ticks)", "result": 17.4, "unit": "%"}, {"measurement": "mortality at 100 ppm", "setting": "[2]; adult ticks, 100 ppm, 24 h, read-out: average percentage of adult tick mortality (moribund or dead adult ticks)", "result": 27.7, "unit": "%"}, {"measurement": "mortality at 100 ppm", "setting": "[2]; adult ticks, 100 ppm, 48 h, read-out: average percentage of adult tick mortality (moribund or dead adult ticks)", "result": 58.9, "unit": "%"}, {"measurement": "mortality at 100 ppm", "setting": "[2]; adult ticks, 100 ppm, 72 h, read-out: average percentage of adult tick mortality (moribund or dead adult ticks)", "result": 84.6, "unit": "%"}, {"measurement": "mortality at 100 ppm", "setting": "[2]; adult ticks, 100 ppm, 96 h, read-out: average percentage of adult tick mortality (moribund or dead adult ticks)", "result": 97.5, "unit": "%"}, {"measurement": "mortality at 100 ppm", "setting": "[2]; nymphs, 100 ppm, 1 h, read-out: average percentage of mortality of tick nymphs (moribund or dead nymphs)", "result": 0, "unit": "%"}, {"measurement": "mortality at 100 ppm", "setting": "[2]; nymphs, 100 ppm, 3 h, read-out: average percentage of mortality of tick nymphs (moribund or dead nymphs)", "result": 14, "unit": "%"}, {"measurement": "mortality at 100 ppm", "setting": "[2]; nymphs, 100 ppm, 6 h, read-out: average percentage of mortality of tick nymphs (moribund or dead nymphs)", "result": 38.7, "unit": "%"}, {"measurement": "mortality at 100 ppm", "setting": "[2]; nymphs, 100 ppm, 12 h, read-out: average percentage of mortality of tick nymphs (moribund or dead nymphs)", "result": 74.9, "unit": "%"}, {"measurement": "mortality at 100 ppm", "setting": "[2]; nymphs, 100 ppm, 24 h, read-out: average percentage of mortality of tick nymphs (moribund or dead nymphs)", "result": 100, "unit": "%"}, {"measurement": "mortality at 100 ppm", "setting": "[2]; nymphs, 100 ppm, 48 h, read-out: average percentage of mortality of tick nymphs (moribund or dead nymphs)", "result": 100, "unit": "%"}, {"measurement": "mortality at 100 ppm", "setting": "[2]; nymphs, 100 ppm, 72 h, read-out: average percentage of mortality of tick nymphs (moribund or dead nymphs)", "result": 100, "unit": "%"}, {"measurement": "mortality at 100 ppm", "setting": "[2]; nymphs, 100 ppm, 96 h, read-out: average percentage of mortality of tick nymphs (moribund or dead nymphs)", "result": 100, "unit": "%"}]}
